# Data reported in patent publication US9468670B2, “Melatonin-based treatment and diagnosis of bile duct disease” (Texas A&M University System, priority 2011, dated 2016).
# “Also recorded” adds a separate entry of the source.
# How the values were obtained:
# large cholangiocytes = assay: Bile duct mass, PCNA-positive cholangiocytes and apoptosis (TUNEL) in liver sections; format: in vivo, rat
# Description: Male 344 Fischer rats (150-175 g) were purchased from Charles River (Wilmington, Mass.) and kept in a temperature-controlled environment (22° C.) with 12:12 hr light/dark cycles. Animals were fed ad libitum and had free access to food and drinking water. […] Before each surgical procedure, animals were anesthetized with sodium pentobarbital (50 mg/kg BW, IP). All animal experiments were performed in accordance with a protocol approved by the Scott and White and Texas A&M Health Science Center Institutional Animal Care and Use Committee and conform to the Guide for the Care and Use of Laboratory Animals published by the US National Institutes of Health (NIH Publication No. 85-23, revised 1996). In all animals, wet liver weight, body weight, wet liver weight to body weight ratio, and an index of liver cell growth including cholangiocytes were measured ([…] et al., 1988). The following was also evaluated in paraffin-embedded liver sections ([…]): (i) lobular necrosis; (ii) the intrahepatic bile duct mass (IBDM) of large (>[…]) ([…] et al., 1997; Glaser et al., 2009) cholangiocytes, the only biliary cell types proliferating following […] et al., 1998; Glaser et al., 2009) and (iii) the percentage of cholangiocyte apoptosis by semiquantitative terminal deoxynucleotidyltransferase biotin-dUTP nick-end labeling (TUNEL) kit (Apoptag; Chemicon International, Inc.) (Glaser et al., 2010). Lobular necrosis was measured in liver sections stained for hematoxylin and eosin (Glaser et al., 2010). […] The IBDM was measured as area occupied by CK-19 positive-bile duct/total area×100 (Glaser et al., 2010). It was also evaluated by H&E of sections if melatonin administration induces the damage of kidney, heart, stomach, spleen and small and large intestine of normal and BDL rats. The sections from the selected were evaluated in a blinded-fashion by two board-certified pathologists by a BX-51 light microscope (Olympus, Tokyo, Japan) equipped with a camera.
# miR-141 = assay: miRNA microarray expression profiling in BDL rat liver; conditions: reduced in BDL; after melatonin treatment in vivo
# From the text: Background: microRNAs (miRNAs) are small non-coding RNAs that have been implicated in the pathology of cholestatic liver injuries. After bile duct ligation (BDL), there is enhanced biliary proliferation and intrahepatic bile duct mass (IBDM). The inventors have previously shown that: i) cholangiocytes produce melatonin and express Clock genes and that ii) melatonin inhibits in vitro and in vivo the growth of cholangiocytes and cholangiocarcinoma cell lines by modulation of the CLOCK genes. Thus, in certain aspects miRNA regulates the expression of CLOCK genes and subsequently alters the proliferation of cholangiocytes after BDL. Methods: miRNA expression in normal and BDL rat liver was evaluated using hybridization based microRNA microarray. Mouse cholangiocytes (NMCs) were used for the experiments in vitro. mRNA expression was quantitated by real-time PCR analysis and protein expression was detected by Western blot. Results: […] Bioinformatics and dual-luciferase reporter assays identified Clock and cryptochrome 1 (Cry1), a blue light-dependent regulator of the circadian feedback loop, as the direct targets of miR-141. […] Targeting of […] during cholestatic liver injuries provides an important therapeutic strategy in the regulation of cholangiocytes proliferation through the regulation of Clock and Cry 1 expression.
# Mz-ChA-1 cells = assay: Mz-ChA-1 cholangiocarcinoma xenograft in nude mice: tumor size and immunohistochemistry of tumor sections; format: in vivo, nude (nu/nu) mice
# Description: AANAT expression was assessed in liver biopsy samples from CCA patients and controls by immunohistochemistry, and in non-malignant cholangiocytes and intra- and extrahepatic CCA lines by qPCR and immunoblots. Melatonin secretion was assessed in the supernatant of normal and CCA lines, and serum and bile from controls and CCA patients by EIA. In the CCA line Mz-ChA-1 stably overexpressing AANAT, the expression of AANAT, melatonin secretion, and CCA proliferation were studied after 48 hr of incubation. In in vivo studies, Mz-ChA-1 cells were injected Sub Q into the hind flanks of nu/nu mice. Tumors were allowed to develop and volumes were measured for 41 days during treatment with saline or melatonin (4 mg/kg BW, IP 3×wk). Tumors were analyzed for AANAT, PCNA, CK-19 and Bax by qPCR and immunoblots. Tumor tissue sections were analyzed for TUNEL, and staining for AANAT, PCNA and CK-19.
# Experiments were performed to evaluate the in vivo effect of melatonin on the growth of cholangiocarcinoma cell lines implanted in the flanks of athymic mice (Francis H et al., 2009). Male BALB/c 6-wk-old nude (nu/nu) mice (Taconic Farms. Hudson, N.Y.) were kept in a temperature-controlled environment (20-22° C.) with 12-hr light-dark cycles, fed ad libitum standard mouse chow, and with free access to drinking water. Mz-ChA-1 cells (5×10^6) were suspended in 0.2 ml of extracellular matrix gel and injected subcutaneously in the rear flanks of the nude mice. After the establishment of the tumor (one week with a tumor size of ˜5 mm^3) mice (n=4) were treated with vehicle (5% ethanol in water) or melatonin (4 mg/kg BW, dissolved in 5% aqueous ethanol solution) (Sewerynek et al., 1995) by IP injections three times a week. Tumor variables were measured three times a week by an electronic caliper, and volume was determined as follows: tumor volume (mm^3)=0.5×[length (mm)×width (mm)×height (mm)]. The measurements started from the first week when the tumor mass was established. After 43 days of treatment, were anesthetized with sodium pentobarbital (50 mg/kg BW IP) and tumor tissues were harvested from the flanks of the mice. Heart, liver, and kidney tissues were collected for evaluation of organ damage by H&E staining of paraffin-embedded sections ([…]). All experiments were conducted under the guidelines of the Scott & White and Texas A&M HSC IACUC Committee. Tumors were allowed to grow until maximum allowable tumor burden was reached as set forth by the Scott & White and Texas A&M HSC IACUC tumor burden policy. Tumor tissues were fixed for 4 hr in 10% buffered formalin and embedded in low-temperature fusion paraffin. Subsequently, sections (4-5 mm) were stained: (i) with H & E for evaluation of necrosis (Francis et al., 2009); and (ii) for PCNA (a marker of proliferation) (Francis et al., 2009), cleaved caspase-3 (for measurement of apoptosis) (Arai et al., 2005), AANAT, ASMT, melatonin, MT1 and MT2 by immunohistochemistry (Francis et al., 2009). Negative controls were obtained by staining the tumor sections with non-immune serum with the omission of the primary antibody. Semiquantitative analysis for these markers was evaluated by image-analysis software, Image-Pro Plus (Media Cybernetics, Silver Springs, Md.) (Lejeune et al., 2008). Three randomly chosen fields were calculated for statistics.
# [1] = BDL rats vs. corresponding control rats
# [2] = tumor sections, semiquantitative immunohistochemistry
smiles,measurement,setting,value
COc1ccc2[nH]cc(CCNC(C)=O)c2c1 [melatonin],Cholangiocyte apoptosis,large cholangiocytes; BDL rats,enhanced
same,Large BDM (bile duct mass),large cholangiocytes; [1],decreased
same,Percentage of PCNA-positive large cholangiocytes,large cholangiocytes; [1],decreased
same,"Effects on bile duct mass, PCNA-positive cholangiocytes and apoptosis",large cholangiocytes; normal rats,no effects
same,miR-141 expression in BDL rat liver,miR-141,recovered
same,Tumor size / xenograft tumor growth,"Mz-ChA-1 cells; nude mice, melatonin 4 mg/kg BW IP three times a week vs. vehicle",significant decrease; also recorded: significantly reduced
same,Necrosis (percentage of the whole field of section),"Mz-ChA-1 cells; tumor sections, H&E, 4 mg/kg BW IP three times a week",>75%^ψ
same,AANAT,Mz-ChA-1 cells; [2],1584.52 ± 127
same,ASMT,Mz-ChA-1 cells; [2],46051.09 ± 13063.04
same,Cleaved caspase-3,Mz-ChA-1 cells; [2],4490.66 ± 1053.52
same,MT1,Mz-ChA-1 cells; [2],1847.76 ± 419.9
same,MT2,Mz-ChA-1 cells; [2],1417.96 ± 425.71
same,Melatonin (immunoreactivity),Mz-ChA-1 cells; [2],41231.48 ± 7634.43
same,PCNA,Mz-ChA-1 cells; [2],0.25 ± 0.09 (% of total % of total nucleus
